Here are results for 25 compounds from ChEMBL document CHEMBL4393738, “Design of hybrid molecules as antimycobacterial compounds: Synthesis of isoniazid-naphthoquinone derivatives and their activity against susceptible and resistant strains of Mycobacterium tuberculosis” (Bioorg Med Chem, 2019).

Broadly, the MIC is the smallest concentration in the dilution series that meets the test's criterion for growth inhibition. Higher therefore signals a less susceptible organism.

What all share (type): functional
The test system of experiment [1] is Mycobacterium tuberculosis. Nature of the experiment: Antimycobacterial activity against isoniazid resistant Mycobacterium tuberculosis H37Rv ATCC 27294 measured after 7 days by resazurin microtiter assay. The conditions noted are these: H37Rv ATCC 27294, 168 h.
Experiment [2] deals with Mycobacterium tuberculosis. As to the kind of experiment: Antimycobacterial activity against isoniazid resistant Mycobacterium tuberculosis ATCC 35822 after 7 days by resazurin microtiter assay. To be noted: ATCC 35822, 168 h. A general note: The colour change of resazurin is a common sign of viable cells or microbes.
Experiment [3] relates to Mycobacterium tuberculosis. Nature of the experiment: Antimycobacterial activity against isoniazid resistant Mycobacterium tuberculosis measured after 7 days by resazurin microtiter assay. To be noted: 168 h.

In brackets after ≈: the same amount, converted by molar mass.

Take `CC1(C)OC2=C(CC1Br)C(=O)C(=O)c1ccccc12` (stereo not drawn): the minimum inhibitory concentration (MIC) was 6.25 µg/mL (≈ 19.5 µM) in experiment [1], 6.25 µg/mL (≈ 19.5 µM) in experiment [2] and 3.12 µg/mL (≈ 9.71 µM) in experiment [3].

As to `CC1(C)OC2=C(C(=O)C(=O)c3ccccc32)C1Nc1ccccc1` (stereo not drawn), the values for the MIC in experiment [1], in experiment [2] and in experiment [3] were 3.12 µg/mL (≈ 9.77 µM), 3.12 µg/mL (≈ 9.77 µM) and 6.25 µg/mL (≈ 19.6 µM), respectively.

On to `O=C1C(=O)c2ccccc2C2=C1CC(Cn1cc(-c3ccccc3)nn1)O2` (stereo not drawn), for which the MIC in experiment [1] came out at 12.5 µg/mL (≈ 35 µM); in experiment [2] it was 25 µg/mL (≈ 70 µM); in experiment [3], 25 µg/mL (≈ 70 µM).

Take `CC1CC2=C(O1)c1ccccc1/C(=N/NC(=O)c1ccncc1)C2=O` (stereo not drawn): the MIC in experiment [1] was 12.5 µg/mL (≈ 37.5 µM); in experiment [2] it was 12.5 µg/mL (≈ 37.5 µM); in experiment [3], 25 µg/mL (≈ 75 µM).

Take `CC1(C)OC2=C(CC1I)C(=O)C(=O)c1ccccc12` (stereo not drawn): the MIC was 3.12 µg/mL (≈ 8.47 µM) in experiment [1], 3.12 µg/mL (≈ 8.47 µM) in experiment [2] and 6.25 µg/mL (≈ 17 µM) in experiment [3].

In the case of `CC1(C)OC2=C(C(=O)/C(=N\NC(=O)c3ccncc3)c3ccccc32)[C@H](n2cc(-c3ccccc3)nn2)[C@H]1Br`, the values for the minimal inhibitory concentration (MIC) in experiment [1], in experiment [2] and in experiment [3] were 200 µg/mL (≈ 343 µM), 200 µg/mL (≈ 343 µM) and above 200 µg/mL, respectively.

Turning to `CC1(C)CC2=C(O1)c1ccccc1/C(=N/NC(=O)c1ccncc1)C2=O`, the values for the MIC in experiment [1], in experiment [2] and in experiment [3] were 0.78 µg/mL (≈ 2.25 µM), 50 µg/mL (≈ 144 µM) and 6.25 µg/mL (≈ 18 µM), respectively.

Consider `CC1(C)OC2=C(CC1Br)C(=O)/C(=N\NC(=O)c1ccncc1)c1ccccc12` (stereo not drawn), for which the MIC in experiment [1], in experiment [2] and in experiment [3] was 12.5 µg/mL (≈ 28.4 µM) throughout.

In the case of `CC1(C)OC2=C(C(=O)/C(=N\NC(=O)c3ccncc3)c3ccccc32)C1n1cc(-c2ccccc2)nn1` (stereo not drawn), the MIC in experiment [1], in experiment [2] and in experiment [3] was 12.5 µg/mL (≈ 25.5 µM) each time.

As for `CC1(C)OC2=C(C(=O)C(=O)c3ccccc32)C1n1cc(-c2ccccc2)nn1` (stereo not drawn), the MIC in experiment [1] was found to be 6.25 µg/mL (≈ 16.8 µM); in experiment [2], 25 µg/mL (≈ 67.3 µM); in experiment [3] it was 25 µg/mL (≈ 67.3 µM).

With `O=C1C2=C(OC(Cn3cc(-c4ccccc4)nn3)C2)c2ccccc2/C1=N/NC(=O)c1ccncc1` (stereo not drawn), the MIC in experiment [1] was determined as 12.5 µg/mL (≈ 26.2 µM); in experiment [2] it was 50 µg/mL (≈ 105 µM); in experiment [3], 50 µg/mL (≈ 105 µM).

Take `CC1(C)OC2=C(C(=O)/C(=N\NC(=O)c3ccncc3)c3ccccc32)C1Nc1ccccc1` (stereo not drawn): the MIC in experiment [1] worked out at 25 µg/mL (≈ 57 µM); in experiment [2], 100 µg/mL (≈ 228 µM); in experiment [3], 25 µg/mL (≈ 57 µM).

Take `CC1(C)OC2=C(C(=O)/C(=N\NC(=O)c3ccncc3)c3ccccc32)C1O` (stereo not drawn): the MIC in experiment [1] was determined as 6.25 µg/mL (≈ 17.2 µM); in experiment [2] it was 200 µg/mL (≈ 550 µM); in experiment [3], 100 µg/mL (≈ 275 µM).

With `CC1(C)CC2=C(O1)/C(=N\NC(=O)c1ccncc1)c1ccccc1C2=O`, the MIC amounted to 25 µg/mL (≈ 72 µM) in experiment [1], 100 µg/mL (≈ 288 µM) in experiment [2] and 200 µg/mL (≈ 576 µM) in experiment [3].

For `CC1(C)CCC2=C(O1)c1ccccc1/C(=N/NC(=O)c1ccncc1)C2=O`, the MIC in experiment [1] amounted to 0.78 µg/mL (≈ 2.16 µM); in experiment [2], 50 µg/mL (≈ 138 µM); in experiment [3], 6.25 µg/mL (≈ 17.3 µM).

As for `CC1(C)OC2=C(CC1I)C(=O)/C(=N\NC(=O)c1ccncc1)c1ccccc12` (stereo not drawn), the MIC in experiment [1], in experiment [2] and in experiment [3] was 100 µg/mL (≈ 205 µM) each time.

With `CC1(C)CCC2=C(O1)/C(=N\NC(=O)c1ccncc1)c1ccccc1C2=O`, the MIC in experiment [1], in experiment [2] and in experiment [3] was above 200 µg/mL each time.

On to `CC1(C)OC2=C(C(=O)C(=O)c3ccccc32)C1O` (stereo not drawn), for which the MIC came out at 12.5 µg/mL (≈ 51.2 µM) in experiment [1], 25 µg/mL (≈ 102 µM) in experiment [2] and 25 µg/mL (≈ 102 µM) in experiment [3].

With `CC1(C)CC2=C(O1)C(=O)c1ccccc1C2=O`, the MIC in experiment [1] amounted to 12.5 µg/mL (≈ 54.8 µM); in experiment [2], 25 µg/mL (≈ 110 µM); in experiment [3], 25 µg/mL (≈ 110 µM).

Take `CC1(C)OC2=C(C(=O)C(=O)c3ccccc32)[C@H](n2cc(-c3ccccc3)nn2)[C@H]1Br` (racemic): the MIC in experiment [1] came to 1.56 µg/mL (≈ 3.36 µM); in experiment [2] it was 6.25 µg/mL (≈ 13.5 µM); in experiment [3] it was 12.5 µg/mL (≈ 26.9 µM).

In experiment [1], `CC1(C)CCC2=C(O1)C(=O)c1ccccc1C2=O` [ALPHA-LAPACHONE] registered a minimum inhibitory concentration (MIC) of 103 µg/mL (≈ 426 µM).

For `NNC(=O)c1ccncc1` [ISONIAZID], the values for the minimum inhibitory concentration (MIC) in experiment [1], in experiment [2] and in experiment [3] were 0.03 µg/mL (≈ 0.219 µM), 2 µg/mL (≈ 14.6 µM) and 0.25 µg/mL (≈ 1.82 µM), respectively.

Consider `CC1(C)CCC2=C(O1)c1ccccc1C(=O)C2=O` [LAPACHONE], for which the figures for the MIC in experiment [1], in experiment [2] and in experiment [3] were 1.56 to 6.25 µg/mL (≈ 6.44 to 25.8 µM), 3.12 µg/mL (≈ 12.9 µM) and 6.25 µg/mL (≈ 25.8 µM), respectively.

Regarding `CC1(C)CC2=C(O1)c1ccccc1C(=O)C2=O` [NOR-BETA-LAPACHONE], the MIC in experiment [1] was 3.12 µg/mL (≈ 13.7 µM); in experiment [2], 12.5 µg/mL (≈ 54.8 µM); in experiment [3] it was 6.25 µg/mL (≈ 27.4 µM).

Take `CO[C@H]1/C=C/O[C@@]2(C)Oc3c(C)c(O)c4c(O)c(c(/C=N/N5CCN(C)CC5)c(O)c4c3C2=O)NC(=O)/C(C)=C\C=C\[C@H](C)[C@H](O)[C@@H](C)[C@@H](O)[C@@H](C)[C@H](OC(C)=O)[C@@H]1C` [RIFAMPIN]: the minimum inhibitory concentration (MIC) is at most 0.03 µg/mL in experiment [1], at most 0.03 µg/mL in experiment [2] and above 8 µg/mL in experiment [3].
